In data set [1] the target is HBV capsid assembly (full-length HBc protein, genotype D1) (Hepatitis B virus genotype D subtype ayw, UniProt P03146, A80I/T33N/V74G). The data set can be described thus: HBV capsid assembly in SFV1/HBc-infected HBc-producing BHK-21 cells, native agarose gel anti-HBc immunoblot. As to conditions: HBc-producing BHK-21 cells; for Effect on capsid production / mobility in initial test: 1–50 μM, 24 h (Figure 5); for Effect on Capsid Assembly / Effect on Capsid Assembly, Starting Concentration: 24 h, native agarose immunoblot; for Type of effect on HBV capsid assembly in dose-dependent experiments: 0.1–50 µM, 24 h (Figure 6). Format: cell-based. In general terms: Immunoblotting shows a protein as a band on a membrane.

Data set [2] in a line: MTT viability assay in BHK-21 cells. It is filed as cell-based, hamster. The following applies: hamster, 200 µM, read-out: Cell viability, percentage from untreated cells. As for the experimental part:
BHK-21 cells were incubated with different concentrations (6.125, 12.25, 25, 50, 100, and 200 µM) of the respective compounds and the cell viability was calculated as a percentage from untreated cells (100%) (Figure 7). In general, the results confirmed the morphological observation of relatively low cytotoxicity for tested compounds at concentrations below 100 µM.
Additionally, cell viability was determined by tetrazolium salt-based assay using the Vybrant MTT Cell Proliferation kit (Thermo Fisher Scientific, Waltham, MA, USA) or more sensitive CCK-8 kit (Abcam). First, the cell numbers and protocol were optimized for BHK-21 and HepG2.2.15 cells, as indicated in the MTT assay kit or CCK-8 reagent manufacturer’s protocol, and standard curves with OD values were created and evaluated.
In order to evaluate the toxicity of selected HAP compounds in the medium, 1.3 × 10^4 BHK-21 were seeded per well in 96-well plates and treated with the studied compounds for 24 h at concentrations 6.125; 12.25; 25; 50; 100; and 200 μM. Control cells without HAP compounds and MTT-free cell media were included in the experiments. The MTT test was performed according to the full protocol version (Thermo Fisher Scientific).
For orientation: Tetrazolium dyes change colour on reduction, which living cells bring about.

The next data set deals with BHK-21 cells. The data set can be described thus: Cytopathic effect (cell morphology, proliferation, trypan blue) in non-infected BHK-21 cells. It is filed as cell-based, hamster. As to conditions: 24 h. The method, then: To define HAP compound non-toxic concentrations for initial studies, non-infected BHK-21 cells were incubated with compounds at four different concentrations for 24 h (25 μM, 50 μM, 100 μM, and 200 μM), and the cytopathic effects were evaluated by analysis of cell morphology and proliferation changes. […] 1c, 1j, 1k and 4a, and 7b. The reference comp.
The cytopathic effect of the compounds was estimated by phase contrast microscopy and standard trypan blue staining, and the cells were counted using an automatic cell counter (Invitrogen). BHK-21 and HepG2.2.15 cells were incubated for 24 h with the studied compounds at […] (25, 50, 100, 150 and 200 μM) and the cell morphology was controlled under microscope to evaluate cytopathic effects (Table 1, the highest non-toxic concentration).
(Protection from cytopathic effect is a common read-out in antiviral testing.)

The next data set relates to HBV. The following applies: HepG2.2.15 cells, six days, secreted virion DNA.
[3] abbreviates: non-infected BHK-21 cells, no noticeable cytopathic effect.

Entries after “also recorded” stand apart in the source; their conditions may differ. Like-named read-outs stand apart in the source and are kept apart here.

Chain of HBV capsid assembly (full-length HBc protein, genotype D1) (P03146 whole entry A80I/T33N/V74G, looked up): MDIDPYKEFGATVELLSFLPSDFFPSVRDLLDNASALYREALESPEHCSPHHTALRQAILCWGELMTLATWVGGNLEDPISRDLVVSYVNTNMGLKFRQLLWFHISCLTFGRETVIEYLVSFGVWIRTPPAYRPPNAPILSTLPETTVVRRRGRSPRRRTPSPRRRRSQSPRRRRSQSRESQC

Regarding `CCOC(=O)C1=C(C)NC(c2nccs2)=NC1c1ccc(F)cc1` (stereo not drawn) (hydrate or solvate) [1j], the melting point (in general, the temperature, or range, at which the solid turns liquid) was 114 to 115 °C.
For `CCCCCCCCCCCCCCCC[n+]1ccc(C)cc1.Cc1ccc(S(=O)(=O)[O-])cc1` [7b], in data set [1], the “Effect on capsid production / mobility in initial test” value is recorded as “did not induce a significant effect on the capsid mobility” and the “Effect on Capsid Assembly” value was “No effect”.
`CCOC(=O)C1=C(C)NC(c2ncc(F)cc2F)=NC1c1ccc(F)cc1` (stereo not drawn) [1c]: in data set [1], the “Effect on capsid production / mobility in initial test” value is given as “inhibitory effect”; the “Effect on Capsid Assembly” value is given as “Capsid signal decrease”; the “Effect on Capsid Assembly, Starting Concentration” value (“Effect … Starting Concentration” for short) was determined as 5 µM.
On to `CC1=C(C(=O)Nc2ccccn2)C(c2ccc(F)cc2Cl)N=C(c2ncc(F)cc2F)N1` (stereo not drawn) [1h], for which, in data set [1], the “Type of effect on HBV capsid assembly in dose-dependent experiments” value (“Type of effect on HBV capsid assembly” for short) is reported as “dose-dependent HBc signal decrease”; the “Effect on Capsid Assembly” value is recorded as “Dose dependent capsid signal decrease”; the “Effect … Starting Concentration” value was 20 µM. In addition, the viability (as a rule, the share of living cells, or the viability signal relative to a control) at 24 h, 200 µM in data set [2] is more than 90%. Moreover, the “The Highest Non-Toxic Concentration” value with BHK-21 cells (setting [3]) was determined as 150 µM.
For the compound `CCOC(=O)C1=C(C)NC(c2nccs2)=NC1c1ccccc1` (stereo not drawn) (hydrate or solvate) [1k], the melting point fell in the range of 129 to 130 °C.
In the case of `COC(=O)C1=C(C[N+]23CCC(CC2)C(O)C3)NC(c2ncc(F)cc2F)=NC1c1ccc(F)cc1Cl` (stereo not drawn) [3d], in data set [1], the “Effect on capsid production / mobility in initial test” value was “inhibitory effect” and the “Effect on Capsid Assembly” value is recorded as “Capsid signal decrease, possible changes in NS packaging”. Further, the “The Highest Non-Toxic Concentration” value in the data set with BHK-21 cells (hamster) amounted to 100 µM.
Compound `COC(=O)C1=C(C[n+]2ccccc2)NC(c2ncc(F)cc2F)=NC1c1ccc(F)cc1Cl` (stereo not drawn) [3a] gave a melting point of 173 to 174 °C. Further, in data set [1], the “Effect on capsid production / mobility in initial test” value is listed as “did not induce a significant effect on the capsid mobility” and the “Effect on Capsid Assembly” value is on record as “No effect”.
Compound `CC1=C(C(=O)Nc2ccccn2)C(c2ccc(F)cc2Cl)N=C(c2ncc(F)cc2F)N1` (stereo not drawn) (hydrate or solvate) [1h] displayed a melting point of 152 to 153 °C.
`COC(=O)C1=C(C[N+]2(C)CCCC2)NC(c2ncc(F)cc2F)=NC1c1ccc(F)cc1Cl` (stereo not drawn) [3b] displayed a melting point of 167 to 168 °C. For the same compound, in data set [1], the “Effect on capsid production / mobility in initial test” value was “did not induce a significant effect on the capsid mobility” and the “Effect on Capsid Assembly” value was “No effect”.
Take `CCCCCC[n+]1ccc(C)cc1.Cc1ccc(S(=O)(=O)[O-])cc1` [7a]: in data set [1], the “Effect on capsid production / mobility in initial test” value is “did not induce a significant effect on the capsid mobility” and the “Effect on Capsid Assembly” value was “No effect”. Further, the “The Highest Non-Toxic Concentration” value in the data set with BHK-21 cells (setting [3]) was determined as 50 µM.
In turn, `CCCOCCOC(=O)C1=C(C)NC(c2ncc(F)cc2F)=NC1c1ccccc1OC(F)F` (stereo not drawn) (hydrate or solvate) [1g] displayed a melting point of 164 to 165 °C.
On the same count and under the same terms, in the case of `CC1=C(C(=O)OCCOC(C)C)C(c2ccc(F)cc2Cl)N=C(c2ncc(F)cc2F)N1` (stereo not drawn) (hydrate or solvate) [1e] it was 156 to 157 °C.
On to `COc1ccccc1NC(=O)C1=C(C)NC(c2ncc(F)cc2F)=NC1c1ccc(F)cc1Cl` (stereo not drawn) [1i], for which, in data set [1], the “Type of effect on HBV capsid assembly” value is given as “dose-dependent HBc signal decrease”; the “Effect on Capsid Assembly” value is recorded as “Dose dependent capsid signal decrease”; the “Effect … Starting Concentration” value turned out to be 20 µM. Further, the viability at 24 h, 200 µM in data set [2] is 71%. Also, in the data set with BHK-21 cells (setting [3]), the “The Highest Non-Toxic Concentration” value stood at 50 µM.
`CCOC(=O)C1=C(C)NC(c2nccs2)=NC1c1ccccc1` (stereo not drawn) [1k]: in data set [1], the “Effect on capsid production / mobility in initial test” value is “misfolding of the HBV capsid”; the “Effect on Capsid Assembly” value is “Dose dependent HBc accumulation, aggregates/or incorrect capsid structures”; the “Effect … Starting Concentration” value was determined as 1 µM.
As to `CCOCCOC(=O)C1=C(C)NC(c2ncc(F)cc2F)=NC1c1ccc(F)cc1Cl` (stereo not drawn) (hydrate or solvate) [1d], the melting point lay in the range of 143 to 144 °C.
Take `CCOC(=O)c1c(C)nc(-c2nccs2)nc1-c1ccccc1` [4a]: the melting point was in the range of 93 to 94 °C. Further, in data set [1], the “Effect on capsid production / mobility in initial test” value is “did not induce a significant effect on the capsid mobility” and the “Effect on Capsid Assembly” value was “No effect”.
With `O=C1OCC2=C1C(c1ccc(F)cc1Cl)N=C(c1ncc(F)cc1F)N2` (stereo not drawn) [compound 5], in data set [1], the “Type of effect on HBV capsid assembly” value is given as “dose-dependent HBc products accumulation”; the “Effect on capsid production / mobility in initial test” value is recorded as “misfolding of the HBV capsid”; the “Effect on Capsid Assembly” value is given as “HBc accumulation, aggregates/or incorrect capsid structures”; the “Effect … Starting Concentration” value amounted to 50 µM.
In the case of `COc1ccccc1NC(=O)C1=C(C)NC(c2ncc(F)cc2F)=NC1c1ccc(F)cc1Cl` (stereo not drawn) (hydrate or solvate) [1i], the melting point was 149 to 150 °C.
For `CCCOCCOC(=O)C1=C(C)NC(c2ncc(F)cc2F)=NC1c1ccc(F)cc1Cl` (stereo not drawn) (hydrate or solvate) [1f], the melting point was 149 to 150 °C.
On the same count and under the same terms, in the case of `CCOC(=O)C1=C(C)NC(c2ncc(F)cc2F)=NC1c1ccc(F)cc1` (stereo not drawn) (hydrate or solvate) [1c] it was 126 to 127 °C.
As for `CCCOCCOC(=O)C1=C(C)NC(c2ncc(F)cc2F)=NC1c1ccccc1OC(F)F` (stereo not drawn) [1g], in data set [1], the “Effect on capsid production / mobility in initial test” value is “did not induce a significant effect on the capsid mobility; also recorded: some increase in capsid band signal” and the “Effect on Capsid Assembly” value was “Insignificant capsid amount increases”. Besides, the “The Highest Non-Toxic Concentration” value in the data set on BHK-21 cells (setting [3]) turned out to be 50 µM.
`COC(=O)C1=C(C[N+]2(C)CCOCC2)NC(c2ncc(F)cc2F)=NC1c1ccc(F)cc1Cl` (stereo not drawn) [3c] came in with a melting point of 181 to 182 °C. Also, in data set [1], the “Effect on capsid production / mobility in initial test” value is given as “did not induce a significant effect on the capsid mobility” and the “Effect on Capsid Assembly” value is “No effect”. In addition, the “The Highest Non-Toxic Concentration” value with BHK-21 cells (setting [3]) was found to be 150 µM.
Take `CCOC(=O)C1=C(C)NC(c2nccs2)=NC1c1ccc(F)cc1` (stereo not drawn) [1j]: in data set [1], the “Type of effect on HBV capsid assembly” value is recorded as “dose-dependent HBc products accumulation”; the “Effect on capsid production / mobility in initial test” value is “misfolding of the HBV capsid”; the “Effect on Capsid Assembly” value was “HBc accumulation, aggregates/or incorrect capsid structures”; the “Effect … Starting Concentration” value is 5 µM.
For `CC1=C(C(=O)O)C(c2ccc(F)cc2Cl)N=C(c2ncc(F)cc2F)N1` (stereo not drawn) [1b], in data set [1], the “Type of effect on HBV capsid assembly” value is listed as “dose-dependent HBc signal decrease”; the “Effect on capsid production / mobility in initial test” value is “inhibitory effect”; the “Effect on Capsid Assembly” value is recorded as “Dose dependent capsid signal decrease”; the “Effect … Starting Concentration” value was 10 µM. The viability at 24 h, 200 µM in data set [2] was more than 90%. Moreover, the “HBV DNA, % from control” value in the data set on HBV (10 µM) is recorded as 74.3%. Also, the “The Highest Non-Toxic Concentration” value in the data set with BHK-21 cells (setting [3]) was found to be 50 µM.
For the compound `CCOC(=O)C1=C(C)NC(c2nccs2)=CC1c1ccc(F)cc1Cl` (stereo not drawn) [compound 6], in data set [1], the “Effect on capsid production / mobility in initial test” value was “did not induce a significant effect on the capsid mobility” and the “Effect on Capsid Assembly” value is listed as “No effect”.
On the same counts, the results for `CCOC(=O)c1c(C)nc(-c2nccs2)nc1-c1ccc(F)cc1` [4b] are “did not induce a significant effect on the capsid mobility” and “No effect”.
As for `CCCOCCOC(=O)C1=C(C)NC(c2ncc(F)cc2F)=NC1c1ccc(F)cc1Cl` (stereo not drawn) [1f], in data set [1], the “Type of effect on HBV capsid assembly” value is reported as “dose-dependent HBc products accumulation”; the “Effect on capsid production / mobility in initial test” value was “misfolding of the HBV capsid”; the “Effect on Capsid Assembly” value is on record as “HBc accumulation, aggregates/or incorrect capsid structures”; the “Effect … Starting Concentration” value is 10 µM. The viability at 24 h, 200 µM in data set [2] was more than 90%. The “HBV DNA, % from control” value in the data set on HBV (20 µM) came to 52.5%. The “The Highest Non-Toxic Concentration” value in the data set on BHK-21 cells (setting [3]) was 100 µM.

These data come from paper PMC9317397, “Design and Synthesis of Hepatitis B Virus (HBV) Capsid Assembly Modulators and Evaluation of Their Activity in Mammalian Cell Model” (Pharmaceuticals, 2022).
